Laboratory results reported in PubChem BioAssay (NCI).
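Test compounds were applied to cells in 96-well plates for 48 hours at 5 doses. TGI marks complete inhibition of growth.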

Columns and labels:
Experiment in all cases: inhibition of tumour cell growth, NCI panel, 48 h
SF-539 CNS = tested on: SF-539 CNS
EKVX NSCLC = tested on: EKVX NSCLC
HCT-116 colon = tested on: HCT-116 colon
SF-295 CNS = tested on: SF-295 CNS
HOP-92 NSCLC = tested on: HOP-92 NSCLC
HCT-15 colon = tested on: HCT-15 colon
LOX IMVI melanoma = tested on: LOX IMVI melanoma
COLO 205 colon = tested on: COLO 205 colon
OVCAR-5 ovarian = tested on: OVCAR-5 ovarian
M19-MEL melanoma = tested on: M19-MEL melanoma
RPMI-8226 leukemia = tested on: RPMI-8226 leukemia
OVCAR-8 ovarian = tested on: OVCAR-8 ovarian
HOP-18 NSCLC = tested on: HOP-18 NSCLC
RXF 393 renal = tested on: RXF 393 renal
SK-MEL-28 melanoma = tested on: SK-MEL-28 melanoma
OVCAR-4 ovarian = tested on: OVCAR-4 ovarian
ACHN renal = tested on: ACHN renal
U251 CNS = tested on: U251 CNS
NCI-H522 lung = tested on: NCI-H522 lung
XF 498 CNS = tested on: XF 498 CNS
TK-10 renal = tested on: TK-10 renal
KM20L2 colon = tested on: KM20L2 colon
KM12 colon = tested on: KM12 colon
SNB-19 CNS = tested on: SNB-19 CNS
SW-620 colon = tested on: SW-620 colon
SF-268 CNS = tested on: SF-268 CNS
SK-OV-3 ovarian = tested on: SK-OV-3 ovarian
NCI-H23 lung = tested on: NCI-H23 lung
A549 NSCLC = tested on: A549 NSCLC
DMS 114 small cell lung = tested on: DMS 114 small cell lung
IGROV1 ovarian = tested on: IGROV1 ovarian
CAKI-1 renal = tested on: CAKI-1 renal
SNB-78 CNS = tested on: SNB-78 CNS
HOP-62 NSCLC = tested on: HOP-62 NSCLC
SN12C renal = tested on: SN12C renal
MOLT-4 leukemia = tested on: MOLT-4 leukemia
UO-31 renal = tested on: UO-31 renal
K-562 leukemia = tested on: K-562 leukemia
DLD-1 colon = tested on: DLD-1 colon
UACC-62 melanoma = tested on: UACC-62 melanoma
LXFL 529 NSCLC = tested on: LXFL 529 NSCLC
HCC-2998 colon = tested on: HCC-2998 colon
SR leukemia = tested on: SR leukemia
SK-MEL-2 melanoma = tested on: SK-MEL-2 melanoma
DMS 273 small cell lung = tested on: DMS 273 small cell lung
CCRF-CEM leukemia = tested on: CCRF-CEM leukemia
NCI-H226 lung = tested on: NCI-H226 lung
OVCAR-3 ovarian = tested on: OVCAR-3 ovarian
SK-MEL-5 melanoma = tested on: SK-MEL-5 melanoma
MALME-3M melanoma = tested on: MALME-3M melanoma
HT29 colon = tested on: HT29 colon
NCI-H460 lung = tested on: NCI-H460 lung
HL-60(TB) leukemia = tested on: HL-60(TB) leukemia
M14 melanoma = tested on: M14 melanoma
786-0 renal = tested on: 786-0 renal
SNB-75 CNS = tested on: SNB-75 CNS
UACC-257 melanoma = tested on: UACC-257 melanoma
A498 renal = tested on: A498 renal

N#CCCN(CCC#N)c1ccc(/C=C2\N=C(c3cc([N+](=O)[O-])ccc3Cl)N(S(=O)(=O)c3ccccc3)C2=O)cc1
TGI (SF-539 CNS): > 100 µM | TGI (EKVX NSCLC): > 100 µM | TGI (HCT-116 colon): > 100 µM | TGI (SF-295 CNS): > 100 µM | TGI (HOP-92 NSCLC): > 100 µM | TGI (HCT-15 colon): > 100 µM | TGI (LOX IMVI melanoma): > 100 µM | TGI (COLO 205 colon): > 100 µM | TGI (OVCAR-5 ovarian): > 100 µM | TGI (M19-MEL melanoma): > 100 µM | TGI (RPMI-8226 leukemia): > 100 µM | TGI (OVCAR-8 ovarian): > 100 µM | TGI (HOP-18 NSCLC): > 100 µM | TGI (RXF 393 renal): > 100 µM | TGI (SK-MEL-28 melanoma): > 100 µM | TGI (OVCAR-4 ovarian): > 100 µM | TGI (ACHN renal): > 100 µM | TGI (U251 CNS): > 100 µM | TGI (NCI-H522 lung): > 100 µM | TGI (XF 498 CNS): > 100 µM | TGI (TK-10 renal): > 100 µM | TGI (KM20L2 colon): > 100 µM | TGI (KM12 colon): > 100 µM | TGI (SNB-19 CNS): > 100 µM | TGI (SW-620 colon): > 100 µM | TGI (SF-268 CNS): > 100 µM | TGI (SK-OV-3 ovarian): > 100 µM | TGI (NCI-H23 lung): > 100 µM | TGI (A549 NSCLC): > 100 µM | TGI (DMS 114 small cell lung): > 100 µM | TGI (IGROV1 ovarian): > 100 µM | TGI (CAKI-1 renal): > 100 µM | TGI (SNB-78 CNS): > 100 µM | TGI (HOP-62 NSCLC): > 100 µM | TGI (SN12C renal): > 100 µM | TGI (MOLT-4 leukemia): > 100 µM | TGI (UO-31 renal): > 100 µM | TGI (K-562 leukemia): > 100 µM | TGI (DLD-1 colon): > 100 µM | TGI (UACC-62 melanoma): > 100 µM | TGI (LXFL 529 NSCLC): > 100 µM | TGI (HCC-2998 colon): > 100 µM | TGI (SR leukemia): > 100 µM | TGI (SK-MEL-2 melanoma): > 100 µM | TGI (DMS 273 small cell lung): > 100 µM | TGI (CCRF-CEM leukemia): > 100 µM | TGI (NCI-H226 lung): > 100 µM | TGI (OVCAR-3 ovarian): > 100 µM | TGI (SK-MEL-5 melanoma): > 100 µM | TGI (MALME-3M melanoma): > 100 µM

Cc1cc(C)c(-n2c(-c3ccccc3)cs/c2=N\N=C2C=C(C(C)(C)C)C(=O)C(C(C)(C)C)=C2)c(C)c1
TGI (HT29 colon): > 100 µM | TGI (NCI-H460 lung): > 100 µM | TGI (SF-539 CNS): > 100 µM | TGI (EKVX NSCLC): > 100 µM | TGI (HCT-116 colon): > 100 µM | TGI (SF-295 CNS): > 100 µM | TGI (HOP-92 NSCLC): > 100 µM | TGI (HCT-15 colon): > 100 µM | TGI (LOX IMVI melanoma): > 100 µM | TGI (COLO 205 colon): > 100 µM | TGI (OVCAR-5 ovarian): > 100 µM | TGI (M19-MEL melanoma): > 100 µM | TGI (RPMI-8226 leukemia): > 100 µM | TGI (OVCAR-8 ovarian): > 100 µM | TGI (HOP-18 NSCLC): > 100 µM | TGI (HL-60(TB) leukemia): > 100 µM | TGI (RXF 393 renal): > 100 µM | TGI (SK-MEL-28 melanoma): > 100 µM | TGI (OVCAR-4 ovarian): > 100 µM | TGI (ACHN renal): > 100 µM | TGI (U251 CNS): > 100 µM | TGI (NCI-H522 lung): > 100 µM | TGI (XF 498 CNS): > 100 µM | TGI (TK-10 renal): > 100 µM | TGI (KM20L2 colon): > 100 µM | TGI (KM12 colon): > 100 µM | TGI (SNB-19 CNS): > 100 µM | TGI (M14 melanoma): > 100 µM | TGI (786-0 renal): > 100 µM | TGI (SNB-75 CNS): 94.6 µM | TGI (SW-620 colon): > 100 µM | TGI (SF-268 CNS): > 100 µM | TGI (SK-OV-3 ovarian): > 100 µM | TGI (NCI-H23 lung): > 100 µM | TGI (A549 NSCLC): > 100 µM | TGI (DMS 114 small cell lung): > 100 µM | TGI (IGROV1 ovarian): > 100 µM | TGI (CAKI-1 renal): > 100 µM | TGI (SNB-78 CNS): > 100 µM | TGI (HOP-62 NSCLC): > 100 µM | TGI (SN12C renal): > 100 µM | TGI (MOLT-4 leukemia): > 100 µM | TGI (K-562 leukemia): > 100 µM | TGI (DLD-1 colon): > 100 µM | TGI (UACC-62 melanoma): > 100 µM | TGI (LXFL 529 NSCLC): > 100 µM | TGI (HCC-2998 colon): > 100 µM | TGI (SR leukemia): > 100 µM | TGI (SK-MEL-2 melanoma): > 100 µM | TGI (DMS 273 small cell lung): > 100 µM | TGI (CCRF-CEM leukemia): > 100 µM | TGI (NCI-H226 lung): > 100 µM | TGI (UACC-257 melanoma): > 100 µM | TGI (OVCAR-3 ovarian): > 100 µM | TGI (SK-MEL-5 melanoma): > 100 µM | TGI (MALME-3M melanoma): > 100 µM

CCN(CC)CCN1CCc2c([nH]c3ccccc23)C1c1cccnc1 (centres undefined)
TGI (HT29 colon): > 100 µM | TGI (NCI-H460 lung): > 100 µM | TGI (SF-539 CNS): > 100 µM | TGI (EKVX NSCLC): > 100 µM | TGI (HCT-116 colon): > 100 µM | TGI (SF-295 CNS): > 100 µM | TGI (HOP-92 NSCLC): > 100 µM | TGI (HCT-15 colon): > 100 µM | TGI (LOX IMVI melanoma): > 100 µM | TGI (OVCAR-5 ovarian): > 100 µM | TGI (M19-MEL melanoma): > 100 µM | TGI (RPMI-8226 leukemia): > 100 µM | TGI (OVCAR-8 ovarian): > 100 µM | TGI (HOP-18 NSCLC): > 100 µM | TGI (HL-60(TB) leukemia): > 100 µM | TGI (SK-MEL-28 melanoma): > 100 µM | TGI (OVCAR-4 ovarian): > 100 µM | TGI (ACHN renal): > 100 µM | TGI (U251 CNS): > 100 µM | TGI (NCI-H522 lung): > 100 µM | TGI (XF 498 CNS): > 100 µM | TGI (TK-10 renal): > 100 µM | TGI (KM20L2 colon): > 100 µM | TGI (KM12 colon): > 100 µM | TGI (SNB-19 CNS): > 100 µM | TGI (M14 melanoma): > 100 µM | TGI (786-0 renal): > 100 µM | TGI (SNB-75 CNS): > 100 µM | TGI (SW-620 colon): > 100 µM | TGI (SF-268 CNS): > 100 µM | TGI (SK-OV-3 ovarian): > 100 µM | TGI (NCI-H23 lung): > 100 µM | TGI (A549 NSCLC): > 100 µM | TGI (DMS 114 small cell lung): > 100 µM | TGI (IGROV1 ovarian): > 100 µM | TGI (CAKI-1 renal): > 100 µM | TGI (SNB-78 CNS): > 100 µM | TGI (HOP-62 NSCLC): > 100 µM | TGI (SN12C renal): > 100 µM | TGI (MOLT-4 leukemia): > 100 µM | TGI (UO-31 renal): > 100 µM | TGI (A498 renal): > 100 µM | TGI (K-562 leukemia): > 100 µM | TGI (DLD-1 colon): > 100 µM | TGI (UACC-62 melanoma): > 100 µM | TGI (LXFL 529 NSCLC): > 100 µM | TGI (HCC-2998 colon): > 100 µM | TGI (SR leukemia): > 100 µM | TGI (DMS 273 small cell lung): > 100 µM | TGI (CCRF-CEM leukemia): > 100 µM | TGI (UACC-257 melanoma): > 100 µM | TGI (OVCAR-3 ovarian): > 100 µM | TGI (SK-MEL-5 melanoma): > 100 µM
